Data: patent US11673894B2, “Imidazopyrimidines and triazolopyrimidines as A2A / A2B inhibitors” (Incyte Corporation, priority 2018, dated 2023)

How the values were obtained:
Adenosine A2A receptor = Adenosine A2A receptor (Homo sapiens (Human), UniProt P29274); assay: A2A Tag-lite HTRF Assay; conditions: Tag-lite Adenosine A2A labeled cells; A2A Receptor Red antagonist fluorescent ligand 12.5 nM; one-site competitive binding model; read-out: A2A_Ki
From the text: The final concentration of DMSO was 1%.

[1] = target: human adenosine A2B receptor (Homo sapiens (Human), UniProt P29275); assay: Adenosine A2B Receptor Cyclic AMP GS Assay; type: cell-based; conditions: HEK-293 cells expressing human A2B receptor; agonist NECA at 12 nM; cAMP accumulation (FRET); read-out: A2B_cAMP_EC50
Method: Stably transfected HEK-293 cells expressing the human adenosine A2B receptor (Perkin Elmer) were maintained in MEM culture medium with 10% FBS and 100 μg/ml Geneticin (Life Technologies). 18 to 24 hours prior to assay, geneticin was removed from culture. The cisbio cAMP-GS Dynamic kit utilizing the FRET (Fluorescence Resonance Energy Transfer) technology was used to measure cAMP accumulation in the cells. Compounds of the present disclosure at an appropriate concentration were mixed with 10000 cells/well in white 96 well half area plates (Perkin Elmer) for 30 min at RT gently shaking. Agonist, NECA (R&D Technologies) at 12 nM was added to each well for 60 min at RT gently shaking. Detection reagents, d2-labeled cAMP (acceptor) and anti-cAMP cryptate (donor) were added to each well for 60 min at RT gently shaking. Plates were read on Pherastar (BMG Labtech), fluorescence ratio 665/620 was calculated and EC50 determination was performed by fitting the curve of percent of control versus the log of the compound concentration using GraphPad Prism.

Sequence of human adenosine A2B receptor (P29275 whole entry): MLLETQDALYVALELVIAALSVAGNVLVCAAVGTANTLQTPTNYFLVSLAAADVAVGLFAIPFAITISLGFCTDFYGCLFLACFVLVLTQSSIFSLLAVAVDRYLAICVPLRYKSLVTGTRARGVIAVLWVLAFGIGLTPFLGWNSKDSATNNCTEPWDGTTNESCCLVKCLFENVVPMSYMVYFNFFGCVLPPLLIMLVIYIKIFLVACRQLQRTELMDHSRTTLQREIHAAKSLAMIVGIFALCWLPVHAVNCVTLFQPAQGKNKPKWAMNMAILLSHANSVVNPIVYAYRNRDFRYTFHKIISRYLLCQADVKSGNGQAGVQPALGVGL
Sequence of Adenosine A2A receptor (P29274 whole entry): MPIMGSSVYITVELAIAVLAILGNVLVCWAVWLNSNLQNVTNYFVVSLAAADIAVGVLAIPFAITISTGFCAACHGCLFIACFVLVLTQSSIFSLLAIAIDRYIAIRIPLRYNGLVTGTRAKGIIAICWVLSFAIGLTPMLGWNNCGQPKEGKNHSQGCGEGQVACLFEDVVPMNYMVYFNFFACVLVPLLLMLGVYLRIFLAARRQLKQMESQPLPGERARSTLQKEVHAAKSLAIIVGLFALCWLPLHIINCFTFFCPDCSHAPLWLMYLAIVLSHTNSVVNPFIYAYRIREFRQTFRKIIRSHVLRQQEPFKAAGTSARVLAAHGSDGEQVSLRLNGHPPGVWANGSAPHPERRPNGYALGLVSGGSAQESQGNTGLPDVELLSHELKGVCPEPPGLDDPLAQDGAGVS

Row | SMILES | Ki (Adenosine A2A receptor) | EC50 [1]
1 | Cc1ncoc1-c1c(-c2cccc(C#N)c2F)nc(N)n2nc(Cc3ccccn3)nc12 [Example 90, 3-(5-Amino-8-(4-methyloxazol-5-yl)-2-(pyridin-2-ylmethyl)-[1,2,4]triazolo[1,5-c]pyrimidin-7-yl)-2-fluorobenzonitrile] | < 0.01 µM | < 0.01 µM
2 | CCNC(=O)c1cn2c(N)nc(-c3cccc(C#N)c3)c(-c3ccncc3C#N)c2n1 [Example 31, 5-Amino-7-(3-cyanophenyl)-N-ethyl-8-(3-cyanopyridin-4-yl)imidazo[1,2-c]pyrimidine-2-carboxamide] | < 0.01 µM | 0.01 to 0.1 µM
3 | CCn1cc(-c2c(-c3cccc(C#N)c3)nc(N)n3cc(C(=O)N4CC(O)C4)nc23)ccc1=O [Example 24, 3-(5-Amino-8-(1-ethyl-6-oxo-1,6-dihydropyridin-3-yl)-2-(3-hydroxyazetidine-1-carbonyl)imidazo[1,2-c]pyrimidin-7-yl)benzonitrile] | < 0.01 µM | < 0.01 µM
4 | CCNC(=O)c1cn2c(N)nc(-c3ccccc3)c(C3=CCN(C(N)=O)CC3)c2n1 [Example 15, 5-Amino-8-(1-carbamoyl-1,2,3,6-tetrahydropyridin-4-yl)-N-ethyl-7-phenylimidazo[1,2-c]pyrimidine-2-carboxamide] | < 0.01 µM | 0.1 to 1 µM
5 | CCNC(=O)c1cn2c(N)nc(-c3cccc(C#N)c3)c(C3CC3)c2n1 [Example 40, 5-Amino-7-(3-cyanophenyl)-8-cyclopropyl-N-ethylimidazo[1,2-c]pyrimidine-2-carboxamide] | 0.01 to 0.1 µM | > 1 µM
6 | CCNC(=O)c1cn2c(N)nc(-c3cccc(C#N)c3)c(-c3ccnn3CC)c2n1 [Example 35, 5-Amino-7-(3-cyanophenyl)-N-ethyl-8-(1-ethyl-1H-pyrazol-5-yl)imidazo[1,2-c]pyrimidine-2-carboxamide] | < 0.01 µM | < 0.01 µM
7 | CCNC(=O)c1cn2c(N)nc(-c3cccc(C#N)c3)c(-c3ccncc3C)c2n1 [Example 27, 5-Amino-7-(3-cyanophenyl)-N-ethyl-8-(3-methylpyridin-4-yl)imidazo[1,2-c]pyrimidine-2-carboxamide] | < 0.01 µM | 0.01 to 0.1 µM
8 | CCNC(=O)c1cn2c(N)nc(-c3cccc(C#N)c3)c(-c3ccncc3Cl)c2n1 [Example 29, 5-Amino-7-(3-cyanophenyl)-N-ethyl-8-(3-chloropyridin-4-yl)imidazo[1,2-c]pyrimidine-2-carboxamide] | < 0.01 µM | < 0.01 µM
9 | CCNC(=O)c1cn2c(N)nc(-c3cccc(C#N)c3)c(-c3ccncn3)c2n1 [Example 38, 5-Amino-7-(3-cyanophenyl)-N-ethyl-8-(pyrimidin-4-yl)imidazo[1,2-c]pyrimidine-2-carboxamide] | < 0.01 µM | 0.01 to 0.1 µM
10 | Cc1cc(-c2c(-c3cccc(C#N)c3)nc(N)n3ccnc23)cc(C)n1 [Example 1, 3-(5-Amino-8-(2,6-dimethylpyridin-4-yl)imidazo[1,2-c]pyrimidin-7-yl)benzonitrile] | < 0.01 µM | 0.1 to 1 µM
11 | CCn1nccc1-c1c(-c2cccc(C#N)c2)nc(N)n2nc(CC3CCCCC3)nc12 [Example 48, 3-(5-Amino-2-(cyclohexylmethyl)-8-(1-ethyl-1H-pyrazol-5-yl)-[1,2,4]triazolo[1,5-c]pyrimidin-7-yl)benzonitrile] | < 0.01 µM | 0.01 to 0.1 µM
12 | CCNC(=O)c1nc2c(-c3cc(C)nc(C)c3)c(-c3ccccc3)nc(N)n2c1Br [Example 20, 5-Amino-3-bromo-8-(2,6-dimethylpyridin-4-yl)-N-ethyl-7-phenylimidazo[1,2-c]pyrimidine-2-carboxamide] | < 0.01 µM | 0.1 to 1 µM
13 | Cc1cc(-c2c(-c3ccccc3)nc(N)n3cc(C(N)=O)nc23)ccn1 [Example 14, 5-Amino-8-(2-methylpyridin-4-yl)-7-phenylimidazo[1,2-c]pyrimidine-2-carboxamide] | < 0.01 µM | 0.01 to 0.1 µM

Now from value to compound:

Row | Ki (Adenosine A2A receptor) | EC50 [1] | SMILES
14 | < 0.01 µM | < 0.01 µM | CCn1nccc1-c1c(-c2cccc(C#N)c2)nc(N)n2nc(Cc3noc4ccccc34)nc12 [Example 55, 3-(5-Amino-2-(benzo[d]isoxazol-3-ylmethyl)-8-(1-ethyl-1H-pyrazol-5-yl)-[1,2,4]triazolo[1,5-c]pyrimidin-7-yl)benzonitrile]
15 | < 0.01 µM | < 0.01 µM | N#Cc1cccc(-c2nc(N)n3nc(Cc4c(F)cccc4CN4C(=O)CNC4=O)nc3c2-c2ccncn2)c1 [Example 75, 3-(5-Amino-2-(2-((2,5-dioxoimidazolidin-1-yl)methyl)-6-fluorobenzyl)-8-(pyrimidin-4-yl)-[1,2,4]triazolo[1,5-c]pyrimidin-7-yl)benzonitrile]
16 | < 0.01 µM | 0.01 to 0.1 µM | CCn1nncc1-c1c(-c2cccc(C#N)c2)nc(N)n2nc(Cc3ccccn3)nc12 [Example 83, 3-(5-Amino-8-(1-ethyl-1H-1,2,3-triazol-5-yl)-2-(pyridin-2-ylmethyl)-[1,2,4]triazolo[1,5-c]pyrimidin-7-yl)benzonitrile]
17 | < 0.01 µM | < 0.01 µM | Cc1ncoc1-c1c(-c2cccc(C#N)c2)nc(N)n2nc(Cc3ccccn3)nc12 [Example 61, 3-(5-Amino-8-(4-methyloxazol-5-yl)-2-(pyridin-2-ylmethyl)-[1,2,4]triazolo[1,5-c]pyrimidin-7-yl)benzonitrile]
18 | < 0.01 µM | 0.1 to 1 µM | N#Cc1cccc(-c2nc(Nc3ncccc3C#N)n3nc(C(O)c4ccccc4)nc3c2-c2ccncn2)c1 (stereo not shown) [Example 68, 2-((7-(3-Cyanophenyl)-2-(hydroxy(phenyl)methyl)-8-(pyrimidin-4-yl)-[1,2,4]triazolo[1,5-c]pyrimidin-5-yl)amino)nicotinonitrile]
19 | < 0.01 µM | < 0.01 µM | Cn1cc(-c2ccccc2Cc2nc3c(-c4ccncn4)c(-c4cccc(C#N)c4)nc(N)n3n2)cn1 [Example 54, 3-(5-Amino-2-(2-(1-methyl-1H-pyrazol-4-yl)benzyl)-8-(pyrimidin-4-yl)-[1,2,4]triazolo[1,5-c]pyrimidin-7-yl)benzonitrile]
20 | < 0.01 µM | 0.01 to 0.1 µM | CCn1nccc1-c1c(-c2cccc(C#N)c2)nc(N)n2nc(Cc3nn(C)c4ccccc34)nc12 [Example 56, 3-(5-Amino-8-(1-ethyl-1H-pyrazol-5-yl)-2-((1-methyl-1H-indazol-3-yl)methyl)-[1,2,4]triazolo[1,5-c]pyrimidin-7-yl)benzonitrile]
21 | < 0.01 µM | 0.1 to 1 µM | N#Cc1cccc(-c2nc(N)n3nc(CN4CC(O)C4)nc3c2-c2ccncn2)c1 [Example 57, 3-(5-Amino-2-((3-hydroxyazetidin-1-yl)methyl)-8-(pyrimidin-4-yl)-[1,2,4]triazolo[1,5-c]pyrimidin-7-yl)benzonitrile]
22 | < 0.01 µM | 0.01 to 0.1 µM | N#Cc1cccc(-c2nc(N)n3nc(C(Oc4ccccn4)c4ccccc4)nc3c2-c2ccncn2)c1 (stereo not shown) [Example 71, 3-(5-Amino-2-(phenyl(pyridin-2-yloxy)methyl)-8-(pyrimidin-4-yl)-[1,2,4]triazolo[1,5-c]pyrimidin-7-yl)benzonitrile]
23 | < 0.01 µM | < 0.01 µM | N#Cc1cccc(-c2nc(N)n3nc(Cc4ccccc4F)nc3c2-c2ccncn2)c1 [Example 49, 3-(5-Amino-2-(2-fluorobenzyl)-8-(pyrimidin-4-yl)-[1,2,4]triazolo[1,5-c]pyrimidin-7-yl)benzonitrile]
24 | < 0.01 µM | 0.1 to 1 µM | CCn1nccc1-c1c(-c2cccc(C#N)c2)nc(N)n2nc(C3(c4ccccc4)CC3)nc12 [Example 67, 3-(5-Amino-8-(1-ethyl-1H-pyrazol-5-yl)-2-(1-phenylcyclopropyl)-[1,2,4]triazolo[1,5-c]pyrimidin-7-yl)benzonitrile]
25 | < 0.01 µM | < 0.01 µM | N#Cc1cccc(-c2nc(N)n3nc(Cc4ncccc4F)nc3c2-c2ccncn2)c1 [Example 88, 3-(5-Amino-2-((3-fluoropyridin-2-yl)methyl)-8-(pyrimidin-4-yl)-[1,2,4]triazolo[1,5-c]pyrimidin-7-yl)benzonitrile]
26 | < 0.01 µM | 0.01 to 0.1 µM | COc1cc(-c2c(-c3cccc(C#N)c3)nc(N)n3nc(Cc4ccccn4)nc23)cc(C)n1 [Example 59, 3-(5-Amino-8-(2-methoxy-6-methylpyridin-4-yl)-2-(pyridin-2-ylmethyl)-[1,2,4]triazolo[1,5-c]pyrimidin-7-yl)benzonitrile]
27 | < 0.01 µM | < 0.01 µM | N#Cc1cccc(-c2nc(N)n3nc([C@H](O)c4ccccc4)nc3c2-c2ccncn2)c1 [Example 65, (R)-3-(5-amino-2-(hydroxy(phenyl)methyl)-8-(pyrimidin-4-yl)-[1,2,4]triazolo[1,5-c]pyrimidin-7-yl)benzonitrile]
28 | < 0.01 µM | < 0.01 µM | N#Cc1cccc(-c2nc(N)n3nc(Cc4ccccn4)nc3c2-c2ccncn2)c1 [Example 41, 3-(5-Amino-2-(pyridin-2-ylmethyl)-8-(pyrimidin-4-yl)-[1,2,4]triazolo[1,5-c]pyrimidin-7-yl)benzonitrile]
29 | < 0.01 µM | < 0.01 µM | Cc1nc(CO)c(-c2c(-c3cccc(C#N)c3)nc(N)n3nc(Cc4ncccc4F)nc23)o1 [Example 85, 3-(5-Amino-2-((3-fluoropyridin-2-yl)methyl)-8-(4-(hydroxymethyl)-2-methyloxazol-5-yl)-[1,2,4]triazolo[1,5-c]pyrimidin-7-yl)benzonitrile]
